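Grown in 96-well plates, cells were treated for 48 hours with each compound at five concentrations. Insufficient inhibition: endpoint recorded as highest concentration tested. GI50 = concentration required for 50% inhibition of growth. TGI denotes the concentration required for complete inhibition of growth.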
Key:
Experiment in all cases: NCI tumour cell line growth inhibition, 48 h
[1] = tested on: NCI-H460 lung
[2] = tested on: A498 renal
[3] = tested on: T-47D breast
[4] = tested on: DU-145 prostate
[5] = tested on: RPMI-8226 leukemia
[6] = tested on: SR leukemia
[7] = tested on: 786-0 renal
[8] = tested on: SF-539 CNS
[9] = tested on: MALME-3M melanoma
[10] = tested on: IGROV1 ovarian
[11] = tested on: LOX IMVI melanoma
[12] = tested on: K-562 leukemia
[13] = tested on: COLO 205 colon
[14] = tested on: OVCAR-4 ovarian
[15] = tested on: ACHN renal
[16] = tested on: NCI/ADR-RES ovarian
[17] = tested on: NCI-H522 lung
[18] = tested on: SF-268 CNS
[19] = tested on: MOLT-4 leukemia
[20] = tested on: HS 578T breast
[21] = tested on: UO-31 renal
[22] = tested on: HT29 colon
[23] = tested on: HCC-2998 colon
[24] = tested on: SK-OV-3 ovarian
[25] = tested on: MCF7 breast
[26] = tested on: HL-60(TB) leukemia
[27] = tested on: SNB-19 CNS
[28] = tested on: SK-MEL-5 melanoma
[29] = tested on: PC-3 prostate
[30] = tested on: UACC-257 melanoma
[31] = tested on: M14 melanoma
[32] = tested on: TK-10 renal
[33] = tested on: U251 CNS
[34] = tested on: HCT-116 colon
[35] = tested on: HCT-15 colon
[36] = tested on: CCRF-CEM leukemia
[37] = tested on: BT-549 breast
[38] = tested on: EKVX NSCLC
[39] = tested on: CAKI-1 renal
[40] = tested on: NCI-H23 lung
[41] = tested on: HOP-92 NSCLC
[42] = tested on: OVCAR-8 ovarian
[43] = tested on: KM12 colon
[44] = tested on: UACC-62 melanoma
[45] = tested on: RXF 393 renal
[46] = tested on: NCI-H226 lung
[47] = tested on: OVCAR-5 ovarian
[48] = tested on: A549 NSCLC
[49] = tested on: SF-295 CNS
[50] = tested on: SK-MEL-28 melanoma
[51] = tested on: MDA-MB-435
[52] = tested on: HOP-62 NSCLC
[53] = tested on: SK-MEL-2 melanoma
[54] = tested on: SW-620 colon
[55] = tested on: OVCAR-3 ovarian
[56] = tested on: SN12C renal
[57] = tested on: SNB-75 CNS
[58] = tested on: MDA-MB-231 breast

## O=C(CSc1nnc(-c2ccc(Cl)cc2)n1-c1ccccc1)Nc1ccc(Cl)cc1
[1]
  GI50: 2770 nM
  TGI: 8.09 µM
[2]
  GI50: 1880 nM
  TGI: 5.15 µM
[3]
  GI50: 3200 nM
  TGI: > 100 µM
[4]
  GI50: 7.41 µM
  TGI: > 100 µM
[5]
  GI50: 4140 nM
  TGI: > 100 µM
[6]
  GI50: 4280 nM
  TGI: > 100 µM
[7]
  GI50: 1920 nM
  TGI: 4.09 µM
[8]
  GI50: 2380 nM
  TGI: 5.18 µM
[9]
  GI50: 3670 nM
  TGI: 22.3 µM
[10]
  GI50: 5.24 µM
  TGI: > 100 µM
[11]
  GI50: 2980 nM
  TGI: 10.2 µM
[12]
  GI50: 13.4 µM
  TGI: > 100000 nM
[13]
  GI50: 15.7 µM
  TGI: > 100 µM
[14]
  GI50: 3380 nM
  TGI: > 100 µM
[15]
  GI50: 1760 nM
  TGI: 3.98 µM
[16]
  GI50: 4.06 µM
  TGI: > 100 µM
[17]
  GI50: 3110 nM
  TGI: 17.2 µM
[18]
  GI50: 4.85 µM
  TGI: > 100 µM
[19]
  GI50: > 100000 nM
  TGI: > 100 µM
[20]
  GI50: 3.52 µM
  TGI: > 100 µM
[21]
  GI50: 1830 nM
  TGI: 5.2 µM
[22]
  GI50: 7.79 µM
  TGI: > 100 µM
[23]
  GI50: 43.9 µM
  TGI: > 100000 nM
[24]
  GI50: 4.53 µM
  TGI: 17.3 µM
[25]
  GI50: 5.76 µM
  TGI: > 100 µM
[26]
  GI50: > 100000 nM
  TGI: > 100 µM
[27]
  GI50: 7.08 µM
  TGI: > 100 µM
[28]
  GI50: 8.07 µM
  TGI: > 100 µM
[29]
  GI50: 20.1 µM
  TGI: > 100 µM
[30]
  GI50: 39.8 µM
  TGI: > 100 µM
[31]
  GI50: 25.1 µM
  TGI: > 100 µM
[32]
  GI50: 2200 nM
  TGI: 5.76 µM
[33]
  GI50: 3200 nM
  TGI: 11.5 µM
[34]
  GI50: 1980 nM
  TGI: 4.29 µM
[35]
  GI50: 87.1 µM
  TGI: > 100000 nM
[36]
  GI50: > 100000 nM
  TGI: > 100 µM
[37]
  GI50: 3.66 µM
  TGI: 38.8 µM
[38]
  GI50: 20.9 µM
  TGI: > 100 µM
[39]
  GI50: 2950 nM
  TGI: 13 µM
[40]
  GI50: 5.09 µM
  TGI: 43.7 µM
[41]
  GI50: 2720 nM
  TGI: 9.6 µM
[42]
  GI50: 3.79 µM
  TGI: 29.9 µM
[43]
  GI50: 47.1 µM
  TGI: > 100 µM
[44]
  GI50: 4.81 µM
  TGI: > 100 µM
[45]
  GI50: 2030 nM
  TGI: 4.98 µM
[46]
  GI50: 3200 nM
  TGI: 20.8 µM
[47]
  GI50: 4.89 µM
  TGI: > 100 µM
[48]
  GI50: 3670 nM
  TGI: > 100 µM
[49]
  GI50: 5.56 µM
  TGI: 21.1 µM
[50]
  GI50: 15.4 µM
  TGI: > 100 µM
[51]
  GI50: 21.5 µM
  TGI: > 100 µM
[52]
  GI50: 3340 nM
  TGI: 16 µM
[53]
  GI50: 13.6 µM
  TGI: 63.8 µM
[54]
  GI50: 8.68 µM
  TGI: > 100000 nM
[55]
  GI50: 6.2 µM
  TGI: 57.8 µM
[56]
  GI50: 3190 nM
  TGI: > 100 µM
[57]
  GI50: 1570 nM
  TGI: 4.57 µM

## CCOC(=O)c1c(NC(=O)c2cccc(C(F)(F)F)c2)sc2c3c(ccc12)OCN(C)C3
[58]
  GI50: 1700 nM
  TGI: 3.33 µM
[1]
  GI50: 1640 nM
  TGI: 3.28 µM
[2]
  GI50: 1630 nM
  TGI: 3.07 µM
[3]
  GI50: 1940 nM
  TGI: 4.57 µM
[4]
  GI50: 1.79 µM
  TGI: 3.23 µM
[5]
  GI50: 1540 nM
  TGI: 4.27 µM
[6]
  GI50: 463 nM
  TGI: 4.58 µM
[8]
  GI50: 1660 nM
  TGI: 3.19 µM
[9]
  GI50: 1980 nM
  TGI: 3.74 µM
[10]
  GI50: 1.69 µM
  TGI: 3.5 µM
[11]
  GI50: 1680 nM
  TGI: 3.25 µM
[12]
  GI50: 0.394 µM
  TGI: 1800 nM
[13]
  GI50: 2.21 µM
  TGI: 5.08 µM
[14]
  GI50: 1790 nM
  TGI: 3.61 µM
[15]
  GI50: 1760 nM
  TGI: 3.27 µM
[17]
  GI50: 2220 nM
  TGI: 5.55 µM
[18]
  GI50: 1.89 µM
  TGI: 3.79 µM
[19]
  GI50: 1860 nM
  TGI: 4.54 µM
[21]
  GI50: 1530 nM
  TGI: 2.94 µM
[23]
  GI50: 1.52 µM
  TGI: 2980 nM
[24]
  GI50: 2.07 µM
  TGI: 4.31 µM
[25]
  GI50: 1.67 µM
  TGI: 3.3 µM
[26]
  GI50: 1540 nM
  TGI: 4.29 µM
[27]
  GI50: 1.79 µM
  TGI: 3.64 µM
[28]
  GI50: 1.77 µM
  TGI: 3.27 µM
[32]
  GI50: 1910 nM
  TGI: 3.81 µM
[33]
  GI50: 1850 nM
  TGI: 3.93 µM
[34]
  GI50: 1950 nM
  TGI: 4.74 µM
[35]
  GI50: 1.31 µM
  TGI: 2690 nM
[36]
  GI50: 1560 nM
  TGI: 4.62 µM
[38]
  GI50: 1.64 µM
  TGI: 3.24 µM
[39]
  GI50: 1570 nM
  TGI: 2.99 µM
[40]
  GI50: 1.89 µM
  TGI: 3.84 µM
[41]
  GI50: 1400 nM
  TGI: 3.05 µM
[42]
  GI50: 2.26 µM
  TGI: 5.24 µM
[43]
  GI50: 1.68 µM
  TGI: 3.19 µM
[44]
  GI50: 1.68 µM
  TGI: 3.17 µM
[45]
  GI50: 1470 nM
  TGI: 3.02 µM
[46]
  GI50: 1780 nM
  TGI: 3.78 µM
[47]
  GI50: 1.67 µM
  TGI: 3.15 µM
[48]
  GI50: 2070 nM
  TGI: 4.9 µM
[49]
  GI50: 1.78 µM
  TGI: 3.35 µM
[50]
  GI50: 1.71 µM
  TGI: 3.14 µM
[51]
  GI50: 1.69 µM
  TGI: 3.13 µM
[52]
  GI50: 2330 nM
  TGI: 6.08 µM
[54]
  GI50: 0.873 µM
  TGI: 2270 nM
[55]
  GI50: 1.7 µM
  TGI: 3.21 µM
[56]
  GI50: 1800 nM
  TGI: 3.53 µM
[57]
  GI50: 1530 nM
  TGI: 3.28 µM

— PubChem BioAssay (NCI)
